One may read the pIC50 as the IC50 on a negative log10 scale, so that one unit is a factor of ten.

The structures appear in SMILES notation. pIC50: −log10 of the molar value. Where two headings read alike, the source gives them in different places.

Experiment [1] concerns platelet aggregation. Put plainly: Platelet aggregation inhibitory activity (ex vivo) after oral administration. Type of experiment: in vivo. Particulars: Cavia porcellus, guinea pig, oral 0.1 mg/kg, ADP 10 μg/ml. Here is the method:
A canula for collecting blood was inserted into the left common carotid artery of a guinea pig which was anesthetized with pentobarbital (30 mg/kg, i.p.). The blood (1 ml) was taken with a syringe containing 1/10 volume of 3.8% sodium citrate (Kettin-citrate, manufactured by Kokusai Shiyaku Ltd.), and the platelet aggregation ability thereof was measured (as a value before administration). Then, a test compound was orally administered to the guinea pig at a dose of 0.1 mg/kg in a volume of 5 ml/kg, and the blood was collected periodically likewise at 0.5, 1, 2, 4 and 6 hours after the administration of the test compound, and the platelet aggregation ability thereof was measured.
The determination of the platelet aggregation ability was carried out by turbidimetry using a Hematracer (Niko Bioscience) as follows. That is, the blood was centrifuged at 4500 rpm at room temperature for 10 seconds, and the supernatant was considered as platelet rich plasma (PRP), and the precipitate was centrifuged at 11000 rpm for two minutes and its supernatant was considered as platelet poor plasma (PPP), and the photo-transmittance of the PRP and the PPP was adjusted to 0%, and 100%, respectively. A cubet containing PRP (200 μl) was inserted to a measurement well, and […] at 1000 rpm at 37° C. for two minutes, and thereto was added a platelet aggregator; ADP (adenosine diphosphate, Sigma Ltd., 20 μl, final concentration; 10 μg/ml), and the maximum aggregation rate was measured. From the maximum aggregation rate before the administration of the test compound (MAR control) and the maximum aggregation rate after the administration of the test compound (MAR sample), the platelet aggregation inhibitory rate of each test compound was estimated according to the following equation.
Inhibitory rate (%)=(1-(MAR sample/MAR control))×100
The periodical change in the platelet aggregation inhibitory rate of each test compound at a dose of 0.1 mg/kg of oral administration is shown in Table 5.

The next experiment concerns human fibronectin. The experiment in a line: Binding assay of platelet to adhesive protein: fibronectin (receptor binding inhibition). Particulars: Table 4; fixed activated human platelets, 37° C., 60 minutes. How it is done:
(§1) The blood was taken out from the elbow vein of a normal volunteer, and mixed with 1/10 volume of 3.8% sodium citrate. The blood was centrifuged at 1,000 rpm (150 g) for 10 minutes, and the supernatant is collected as a platelet rich plasma (PRP). The precipitates are centrifuged at 11,000 rpm (6000 g) for two minutes, and the supernatant is collected as a platelet poor plasma (PPP). To PRP is added prostaglandin I2 (PGl2) at a final concentration of 50 ng/ml, and the mixture was centrifuged at 11000 rpm for two minutes to give human platelet. The platelet was activated by washing with 3.8 mM HEPES-buffer (pH 7.4, Tyrode-HEPES buffer) containing 0.14 M sodium chloride, 2.7 mM potassium chloride, 3.7 mM sodium dihydrogen phosphate, 0.98 mM magnesium chloride, 1 mg/ml glucose, 50 ng/ml PGl2 and 0.35% bovine serum albumin (BSA), adding thereto 5 μM epinephrine, and 30 μM ADP (adenosine diphosphate), followed by being allowed to stand at room temperature for five minutes. To the activated platelet was added 0.05% p-formaldehyde, and the mixture was allowed to stand at room temperature for 30 minutes to give the fixed platelet, which was suspended in Tyrode-HEPES buffer to give a platelet suspension of a concentration of 2×10^8 ml^-1.
(§2) Human fibrinogen from which fibronectin was previously removed by passing through gelatin-cepharose, human fibronectin or human vitronectin was diluted with 0.1 M aqueous sodium hydrogen carbonate solution to a concentration of 5 μg/ml, and the protein solution is put into a 96-well microplate at a volume of 200 μl/well. The microplate was allowed to stand at 4° C. overnight. The plate was washed with phosphate buffered saline (PBS), and subjected to blocking with 3% BSA at 37° C. for one hour. To the plate were added a platelet suspension (final concentration, 10^8 ml^-1) and a test compound of various concentrations (total volume, 200 μl/well), and the plate was incubated at 37° C. for 60 minutes. The plate was treated with 1000-fold diluted enzyme (HRP)-labelled anti-mouse IgG polyclonal antibody at 37° C. for 60 minutes, and thereto was added HRP chromogenic substrate (0.1 M phosphate buffer containing 0.4 mg/ml O-phenylenediamine,0.01% hydrogen peroxide, 0.1 M citric acid, pH 5), and reacted at room temperature for 15 minutes. The reaction was terminated by adding thereto 4.5 M sulfuric acid at a volume of 25 μl/well, and the absorbance at 490 nm was measured.

Experiment [2] concerns platelet aggregation. Put plainly: Platelet aggregation inhibitory activity (ADP-induced, human platelet rich plasma). In kind it is cell-based. The note with it: Homo sapiens. The essentials:
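Citrated human platelet-rich plasma […] was stirred with test compound for 2 min at 37 °C. Aggregation was then induced with ADP at 3 μg/ml final and monitored by nephelometry. IC50 is the concentration giving 50% inhibition of aggregation.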

For a further experiment, the target named is T1, human fibrinogen (Homo sapiens, UniProt P05106+P08514).
T1 construct: centrifuged at 11000 rpm for two minutes to give human platelet; from tissue
T1 sequence (P08514 32-887 limits assumed): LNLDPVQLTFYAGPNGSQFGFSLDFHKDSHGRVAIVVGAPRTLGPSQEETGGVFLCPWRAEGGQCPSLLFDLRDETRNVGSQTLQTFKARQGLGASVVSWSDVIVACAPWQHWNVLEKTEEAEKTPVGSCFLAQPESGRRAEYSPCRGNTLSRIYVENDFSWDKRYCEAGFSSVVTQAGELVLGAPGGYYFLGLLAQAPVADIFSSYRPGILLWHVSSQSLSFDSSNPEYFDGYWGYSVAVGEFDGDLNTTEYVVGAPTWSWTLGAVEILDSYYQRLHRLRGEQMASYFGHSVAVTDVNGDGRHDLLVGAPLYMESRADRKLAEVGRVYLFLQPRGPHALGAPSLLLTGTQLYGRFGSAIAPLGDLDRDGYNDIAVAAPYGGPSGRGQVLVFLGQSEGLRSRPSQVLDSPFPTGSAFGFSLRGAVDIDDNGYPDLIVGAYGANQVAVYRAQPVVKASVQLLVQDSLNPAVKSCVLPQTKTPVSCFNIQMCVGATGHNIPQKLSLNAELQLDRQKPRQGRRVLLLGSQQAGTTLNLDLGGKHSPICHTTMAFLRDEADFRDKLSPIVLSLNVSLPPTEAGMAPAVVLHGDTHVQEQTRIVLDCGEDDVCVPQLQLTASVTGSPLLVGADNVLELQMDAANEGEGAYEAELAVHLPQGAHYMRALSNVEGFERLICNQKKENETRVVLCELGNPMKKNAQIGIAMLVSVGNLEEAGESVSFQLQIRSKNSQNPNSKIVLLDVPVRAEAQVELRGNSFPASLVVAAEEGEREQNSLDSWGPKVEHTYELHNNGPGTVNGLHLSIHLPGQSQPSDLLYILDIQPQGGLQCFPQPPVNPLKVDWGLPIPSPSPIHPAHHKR
T1 sequence (P08514 891-1039 limits assumed): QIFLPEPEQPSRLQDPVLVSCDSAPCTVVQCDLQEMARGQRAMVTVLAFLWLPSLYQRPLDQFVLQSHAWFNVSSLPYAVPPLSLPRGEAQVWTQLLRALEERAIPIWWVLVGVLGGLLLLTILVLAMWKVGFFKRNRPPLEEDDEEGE
T1 sequence (P05106 27-788): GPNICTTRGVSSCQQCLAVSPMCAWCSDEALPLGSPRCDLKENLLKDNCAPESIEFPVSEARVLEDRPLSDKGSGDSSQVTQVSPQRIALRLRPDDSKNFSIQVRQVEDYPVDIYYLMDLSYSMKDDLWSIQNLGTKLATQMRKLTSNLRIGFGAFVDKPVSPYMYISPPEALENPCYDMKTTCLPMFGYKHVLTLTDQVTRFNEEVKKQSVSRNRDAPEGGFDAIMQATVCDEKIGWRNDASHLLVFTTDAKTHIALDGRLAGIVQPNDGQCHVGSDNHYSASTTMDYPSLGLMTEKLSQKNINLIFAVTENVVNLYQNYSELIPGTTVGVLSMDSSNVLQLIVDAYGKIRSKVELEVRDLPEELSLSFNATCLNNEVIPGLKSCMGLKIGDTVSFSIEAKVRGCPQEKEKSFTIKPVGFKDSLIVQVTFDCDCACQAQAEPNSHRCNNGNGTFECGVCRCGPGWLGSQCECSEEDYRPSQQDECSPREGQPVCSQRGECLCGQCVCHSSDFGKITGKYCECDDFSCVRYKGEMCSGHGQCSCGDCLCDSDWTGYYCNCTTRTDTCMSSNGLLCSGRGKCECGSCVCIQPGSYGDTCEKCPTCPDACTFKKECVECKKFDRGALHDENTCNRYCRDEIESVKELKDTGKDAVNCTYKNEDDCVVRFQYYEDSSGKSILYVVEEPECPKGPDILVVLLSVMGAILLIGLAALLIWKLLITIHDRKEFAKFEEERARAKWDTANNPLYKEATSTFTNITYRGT
Put plainly: Binding assay of platelet to adhesive protein: fibrinogen (receptor binding inhibition). Particulars: Table 4; fixed activated human platelets, 37° C., 60 minutes. Here is the method: as §1, §2

The next experiment deals with human vitronectin. Put plainly: Binding assay of platelet to adhesive protein: vitronectin (receptor binding inhibition). The note with it: Table 4; fixed activated human platelets, 37° C., 60 minutes; read-out: receptor binding inhibition (IC50), Bitronectin. Here is the method: as §1, §2
[3] abbreviates: 0.5 hr, read-out: platelet aggregation inhibitory rate (%), 0.5 hr.
Setting [4] is: 1 hr, read-out: platelet aggregation inhibitory rate (%), 1 hr.
Setting [5] is: 2 hrs, read-out: platelet aggregation inhibitory rate (%), 2 hrs.
[6] abbreviates: 4 hrs, read-out: platelet aggregation inhibitory rate (%), 4 hrs.
The mark [7] stands for this setting: 6 hrs, read-out: platelet aggregation inhibitory rate (%), 6 hrs.
The mark [8] stands for this setting: Table 2, same manner as Example 17.
Setting [9] is: Table 3, same manner as Example 17.

Turning to `COc1ccc(S(=O)(=O)N[C@@H](CNC(=O)CCCCOc2ccc(C(=N)N)cc2)C(=O)O)cc1` [Example 63, (2S)-3-(5-(4-amidinophenoxy)pentanoylamino)-2-(4-methoxy)benzenesulfonylaminopropanoic Acid], the inhibition in vivo at 0.1 mg/kg amounted to 57% in the experiment with platelet aggregation [1] (setting [3]); 48% with platelet aggregation [1] (setting [4]); 26% with platelet aggregation [1] (setting [5]); 3% with platelet aggregation [1] (setting [6]); 0% in the experiment on platelet aggregation [1] (setting [7]). Further, the pIC50 in the experiment with human fibronectin is 7.39; in the experiment on platelet aggregation [2] (setting [8]) it was 7.82; at human fibrinogen it was 8.66; in the experiment on human vitronectin, 6.89.
Consider `N=C(N)c1ccc(OCCCCC(=O)NC[C@H](NS(=O)(=O)c2ccccc2)C(=O)O)cc1` [Example 64, (2S)-3-(5-(4-amidinophenoxy)pentanoylamino)-2-benzenesulfonylaminopropanoic Acid], for which the inhibition in vivo at 0.1 mg/kg is 50% with platelet aggregation [1] (setting [3]); 0% in the experiment with platelet aggregation [1] (setting [4]); 0% in the experiment on platelet aggregation [1] (setting [5]); 0% in the experiment on platelet aggregation [1] (setting [6]); 0% with platelet aggregation [1] (setting [7]). For the same compound, the pIC50 was 6.55 in the experiment with human fibronectin, 7.49 in the experiment on platelet aggregation [2] (setting [8]), 7.62 on human fibrinogen and 5.32 in the experiment with human vitronectin.
As to `N=C(N)c1ccc(N2CCC(CC(=O)NC[C@H](NS(=O)(=O)c3ccccc3)C(=O)O)CC2)cc1` [Example 69, (2S)-3-(2-(1-(4-amidinophenyl)-4-piperidyl)ethanoylamino)-2-benzenesulfonylaminopropanoic Acid], the inhibition in vivo at 0.1 mg/kg in the experiment on platelet aggregation [1] (setting [3]) was 69%; in the experiment on platelet aggregation [1] (setting [4]) it was 39%; in the experiment with platelet aggregation [1] (setting [5]), 22%; in the experiment with platelet aggregation [1] (setting [6]), 6%; with platelet aggregation [1] (setting [7]), 3%. Moreover, the pIC50 in the experiment with human fibronectin was 7.22; in the experiment with platelet aggregation [2] (setting [8]) it was 7.54; at human fibrinogen, 8.01; in the experiment with human vitronectin it was 6.01.
As to `Cc1ccccc1S(=O)(=O)N[C@@H](CNC(=O)CCNC(=O)c1ccc(C(=N)N)cc1)C(=O)O` [Example 74, (2S)-3-(3-(4-amidinobenzoylamino)propanoylamino)-2-(2-methyl)benzenesulfonylaminopropanoic Acid], the inhibition in vivo at 0.1 mg/kg with platelet aggregation [1] (setting [3]) turned out to be 92%; in the experiment with platelet aggregation [1] (setting [4]) it was 100%; with platelet aggregation [1] (setting [5]), 100%; in the experiment with platelet aggregation [1] (setting [6]), 100%; in the experiment with platelet aggregation [1] (setting [7]) it was 100%. Besides, the pIC50 with human fibronectin was 6.27; in the experiment on platelet aggregation [2] (setting [9]) it was 7.85; on human fibrinogen, 7.66; with human vitronectin, 5.46.
With `Cc1cccc(S(=O)(=O)N[C@@H](CNC(=O)CCNC(=O)c2ccc(C(=N)N)cc2)C(=O)O)c1` [Example 75, (2S)-3-(3-(4-amidinobenzoylamino)propanoylamino)-2-(3-methyl)benzenesulfonylaminopropanoic Acid], the inhibition in vivo at 0.1 mg/kg in the experiment on platelet aggregation [1] (setting [3]) turned out to be 74%; in the experiment on platelet aggregation [1] (setting [4]), 82%; in the experiment on platelet aggregation [1] (setting [5]) it was 100%; in the experiment with platelet aggregation [1] (setting [6]), 90%; in the experiment with platelet aggregation [1] (setting [7]), 74%. Moreover, the pIC50 was 6.96 with human fibronectin, 7.47 with platelet aggregation [2] (setting [9]), 8.09 on human fibrinogen and 5.80 with human vitronectin.
Take `Cc1ccc(S(=O)(=O)N[C@@H](CNC(=O)CCNC(=O)c2ccc(C(=N)N)cc2)C(=O)O)cc1` [Example 76, (2S)-3-(3-(4-amidinobenzoylamino)propanoylamino)-2-(4-methyl)benzenesulfonylaminopropanoic Acid]: the inhibition in vivo at 0.1 mg/kg in the experiment on platelet aggregation [1] (setting [3]), with platelet aggregation [1] (setting [4]), in the experiment on platelet aggregation [1] (setting [5]), in the experiment on platelet aggregation [1] (setting [6]) and in the experiment with platelet aggregation [1] (setting [7]) was 100% throughout. For the same compound, the pIC50 with human fibronectin was 6.29; with platelet aggregation [2] (setting [9]), 7.77; at human fibrinogen, 8.20; with human vitronectin, 6.27.
With `N=C(N)c1ccc(C(=O)NCCC(=O)NC[C@H](NS(=O)(=O)c2ccccc2[N+](=O)[O-])C(=O)O)cc1` [Example 77, (2S)-3-(3-(4-amidinobenzoylamino)propanoylamino)-2-(2-nitro)benzenesulfonylaminopropanoic Acid], the inhibition in vivo at 0.1 mg/kg with platelet aggregation [1] (setting [3]) was 100%; with platelet aggregation [1] (setting [4]), 100%; with platelet aggregation [1] (setting [5]), 100%; in the experiment on platelet aggregation [1] (setting [6]), 100%; in the experiment with platelet aggregation [1] (setting [7]) it was 97%. The pIC50 with human fibronectin is 7.27; in the experiment with platelet aggregation [2] (setting [9]) it was 7.19; at human fibrinogen it was 8.17; with human vitronectin it was 6.17.
`N=C(N)c1ccc(C(=O)NCCC(=O)NC[C@H](NS(=O)(=O)c2ccc(F)cc2)C(=O)O)cc1` [Example 78, (2S)-3-(3-(4-amidinobenzoylamino)propanoylamino)-2-(4-fluoro)benzenesulfonylaminopropanoic Acid]: the inhibition in vivo at 0.1 mg/kg in the experiment with platelet aggregation [1] (setting [3]) amounted to 99%; in the experiment with platelet aggregation [1] (setting [4]), 100%; in the experiment on platelet aggregation [1] (setting [5]), 100%; in the experiment with platelet aggregation [1] (setting [6]), 100%; in the experiment on platelet aggregation [1] (setting [7]), 100%. Further, the pIC50 with human fibronectin is 7.60; in the experiment on platelet aggregation [2] (setting [9]), 7.80; at human fibrinogen, 8.05; with human vitronectin it was 6.80.
As for `CCc1ccc(S(=O)(=O)N[C@@H](CNC(=O)CCNC(=O)c2ccc(C(=N)N)cc2)C(=O)O)cc1` [Example 80, (2S)-3-(3-(4-amidinobenzoylamino)propanoylamino)-2-(4-ethyl)benzenesulfonylaminopropanoic Acid], the inhibition in vivo at 0.1 mg/kg is 100% in the experiment with platelet aggregation [1] (setting [3]); 100% in the experiment with platelet aggregation [1] (setting [4]); 75% in the experiment with platelet aggregation [1] (setting [5]); 79% in the experiment on platelet aggregation [1] (setting [6]); 74% in the experiment with platelet aggregation [1] (setting [7]). Further, the pIC50 was 6.41 in the experiment on human fibronectin, 7.77 in the experiment on platelet aggregation [2] (setting [9]), 8.00 at human fibrinogen and 5.31 in the experiment with human vitronectin.

The values above are taken from patent publication US6048854A, “2,3-diaminopropionic acid derivative” (Sumitomo Pharmaceuticals Company, Limited, priority 1993, dated 2000).
